Patent publication US8440853B2, “Ester compound and use thereof” (Sumitomo Chemical Company, Limited, priority 2010, dated 2013)

Legend:
Assay type in all cases: in vivo
[1] = system: German cockroaches (Blattella germanica); assay: Knock-down test, oil solution sprayed on German cockroaches (Test Example 2); details: adult German cockroaches, 0.1% (w/v) oil solution, 1.5 ml sprayed
Method: Zero point one (0.1) part of the compound of the present inventions (1), (2),(3) and (5) was dissolved in 10 parts of isopropyl alcohol and the solution was mixed with 89.9 parts of deodorized kerosene to prepare a 0.1% (w/v) oil solution.
Ten adult German cockroaches (Blattella germanica, 5 males and 5 females) were released in a test container (diameter 8.75 cm, 7.5 cm high, the bottom face is made of 16 mesh metallic wire), the inner face on which butter was applied, and the container was set at the bottom of a test chamber (bottom face: 46 cm×46 cm, height: 70 cm).
Each 1.5 ml of the oil solution of the compound of the present invention (1), (2), (3) and (5) was sprayed using a spray gun at a pressure of 0.4 kg/cm^2 from 60 cm higher than the upper face of the container. Thirty seconds after the spraying, the container was pulled out from the chamber. Two minutes after spraying, the number of knocked-down cockroaches was counted and a knock-down ratio was determined (repeated once). A knocked-down ratio was calculated by the following equation. Knocked-down ratio (%)=(Number of knocked-down cockroaches/Number of test cockroaches)×100 The results (2 minutes after spraying) are shown in Table 2.

[2] = system: American cockroaches (Periplaneta Americana); assay: Knock-down test, oil solution sprayed on American cockroaches (Test Example 1); details: adult American cockroaches, 0.1% (w/v) oil solution, 1.5 ml sprayed
Method: Zero point one (0.1) part of the compound of the present inventions (1) was dissolved in 10 parts of isopropyl alcohol and the solution was mixed with 89.9 parts of deodorized kerosene to prepare a 0.1% (w/v) oil solution.
Six adult American cockroaches (Periplaneta Americana, 3 males and 3 females) were released in a test container (diameter 12.5 cm, 10 cm high, the bottom face is made of 16 mesh metallic wire), the inner face on which butter was applied, and the container was set at the bottom of a test chamber (bottom face: 46 cm×46 cm, height: 70 cm). One point five (1.5) ml of the oil solution of the compound of the present invention (1) was sprayed using a spray gun at a pressure of 0.4 kg/cm^2 from 60 cm higher than the upper face of the container. Thirty seconds after the spraying, the container was pulled out from the chamber. Ten minutes after spraying, the number of knocked-down cockroaches was counted and a knock-down ratio was determined (repeated twice). The knocked-down ratio was calculated by the following equation. Knocked-down ratio (%)=(Number of knocked-down cockroaches/Number of test cockroaches)×100

[3] = system: houseflies (Musca domestica); assay: Knock-down test, oil solution sprayed into glass chamber with houseflies (Test Example 4); details: adult houseflies, 0.00625% (w/v) oil solution, 0.7 ml sprayed into 70 cm cubic glass chamber
Method: Zero point zero zero six two five(0.00625) part of the compound of the present invention (1), (3) and (4) was dissolved in 10 parts of isopropyl alcohol, and the solution was mixed with 89.99375 parts of deodorized kerosene to prepare a 0.00625% (w/v) oil solution.
Ten adult houseflies (Musca domestica) were released in a cubic glass chamber having each side of 70 cm, and 0.7 ml of the oil solution of the compound of the present invention (1), (3) and (4) was sprayed into the chamber through a small window on the side of the chamber using a spraying gun at a pressure of 0.9 kg/cm^2. Seven minutes after spraying, the number of knocked-down flies was counted and a knock-down ratio was determined. A knocked-down ratio was calculated by the following equation. Knocked-down ratio (%)=(Number of knocked-down flies/Number of test flies)×100

[4] = system: common mosquitoes (Culex pipens pallens); assay: Knock-down test, oil solution sprayed into glass chamber with common mosquitoes (Test Example 3); details: adult female common mosquitoes, 0.00625% (w/v) oil solution sprayed into 70 cm cubic glass chamber
Method: Zero point zero zero six two five(0.00625) part of the compound of the present invention (1) was dissolved in 10 parts of isopropyl alcohol, and the solution was mixed with 89.99375 parts of deodorized kerosene to prepare a 0.00625% (w/v) oil solution.
Ten adult female common mosquitoes (Culex pipens pallens) were released in a cubic glass chamber having each side of 70 cm. The oil solution of the compound of the present invention (1) was sprayed into the chamber through a small window on the side of the chamber using a spraying gun at a pressure of 0.9 kg/cm^2. Ten minutes after spraying, the number of knocked-down mosquitoes was counted and a knock-down ratio was determined. A knocked-down ratio was calculated by the following equation. Knocked-down ratio (%)=(Number of knocked-down mosquitoes/Number of test mosquitoes)×100

Compound | Knock-down ratio (%) 2 minutes after spraying [1] [%] | Knock-down ratio (%) 10 minutes after spraying [2] [%] | Knock-down ratio (%) 7 minutes after spraying [3] [%] | Knock-down ratio (%) 10 minutes after spraying [4] [%]
CCSC(C#N)=C[C@@H]1[C@@H](C(=O)OCc2c(F)c(F)c(C)c(F)c2F)C1(C)C (relative stereo) [compound of the present invention (5), 4-methyl-2,3,5,6-tetrafluorobenzyl=(1R)-trans-3-[(1EZ)-2-cyano-2-(ethylthio)ethenyl]-2,2-dimethylcyclopropane carboxylate] | 100 | – | – | –
COCc1c(F)c(F)c(COC(=O)[C@@H]2[C@@H](/C=C(\C#N)SC)C2(C)C)c(F)c1F [compound of the present invention (1), 4-methoxymethyl-2,3,5,6-tetrafluorobenzyl=(1R)-trans-3-[(1E)-2-cyano-2-(methylthio)ethenyl]-2,2-dimethylcyclopropane carboxylate] | 100 | 100 | 100 | 94
CCCCSC(C#N)=C[C@@H]1[C@@H](C(=O)OCc2c(F)c(F)c(COC)c(F)c2F)C1(C)C [compound of the present invention (2), 4-methoxymethyl-2,3,5,6-tetrafluorobenzyl=(1R)-trans-3-[(1EZ)-2-cyano-2-(butylthio)ethenyl]-2,2-dimethylcyclopropane carboxylate] | 100 | – | – | –
CCSC(C#N)=C[C@@H]1[C@@H](C(=O)OCc2c(F)c(F)c(COC)c(F)c2F)C1(C)C [compound of the present invention (3), 4-methoxymethyl-2,3,5,6-tetrafluorobenzyl=(1R)-trans-3-[(1EZ)-2-cyano-2-(ethylthio)ethenyl]-2,2-dimethylcyclopropane carboxylate] | 100 | – | 95 | –
